Test results published in PubChem BioAssay AID248 (DTP/NCI, 2004).
“And” between values parts separate entries of the source, which are not always exact repeats. Equal entries are not always repeated. Toxic doses and inconclusive results are not listed. Cut-off read from the data, not from the text of the source: active = T/C of 150% or more; inactive = T/C below 125%.

System: L1210 leukemia ip in BDF1 mice, survival T/C
Assay: NCI In Vivo Anticancer Drug Screen. Data for tumor model L1210 Leukemia (intraperitoneal) in B6D2F1 (BDF1) mice
Details: endpoint: mean survival time, higher = longer survival
Outline: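 Transplantable tumor model; survival measured in treated vs vehicle control mice. Value = treated/control.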

[1] = dose: 100.0 mg/kg/injection, schedule: Q04DX003 (ip), vehicle: saline
[2] = dose: 200.0 mg/kg/injection, schedule: Q04DX003 (ip), vehicle: saline
[3] = dose: 400.0 mg/kg/injection, schedule: Q04DX003 (ip), vehicle: saline
[4] = dose: 100.0 mg/kg/injection, schedule: Q04DX002 (ip), vehicle: Klucel (hydroxypropylcellulose) (HPC)
[5] = dose: 200.0 mg/kg/injection, schedule: Q04DX002 (ip), vehicle: Klucel (hydroxypropylcellulose) (HPC)
[6] = dose: 400.0 mg/kg/injection, schedule: Q04DX002 (ip), vehicle: Klucel (hydroxypropylcellulose) (HPC)
[7] = dose: 100.0 mg/kg/injection, schedule: Q01DX001 (ip), vehicle: Klucel (hydroxypropylcellulose) (HPC)
[8] = dose: 100.0 mg/kg/injection, schedule: Q01DX009 (ip), vehicle: Klucel (hydroxypropylcellulose) (HPC)
[9] = dose: 100.0 mg/kg/injection, schedule: Q04DX003 (ip), vehicle: Klucel (hydroxypropylcellulose) (HPC)
[10] = dose: 200.0 mg/kg/injection, schedule: Q01DX001 (ip), vehicle: Klucel (hydroxypropylcellulose) (HPC)
[11] = dose: 200.0 mg/kg/injection, schedule: Q01DX009 (ip), vehicle: Klucel (hydroxypropylcellulose) (HPC)
[12] = dose: 200.0 mg/kg/injection, schedule: Q04DX003 (ip), vehicle: Klucel (hydroxypropylcellulose) (HPC)
[13] = dose: 400.0 mg/kg/injection, schedule: Q01DX001 (ip), vehicle: Klucel (hydroxypropylcellulose) (HPC)
[14] = dose: 400.0 mg/kg/injection, schedule: Q01DX009 (ip), vehicle: Klucel (hydroxypropylcellulose) (HPC)
[15] = dose: 400.0 mg/kg/injection, schedule: Q04DX003 (ip), vehicle: Klucel (hydroxypropylcellulose) (HPC)
[16] = dose: 50.0 mg/kg/injection, schedule: Q01DX001 (ip), vehicle: saline
[17] = dose: 100.0 mg/kg/injection, schedule: Q01DX001 (ip), vehicle: saline
[18] = dose: 200.0 mg/kg/injection, schedule: Q01DX001 (ip), vehicle: saline
[19] = dose: 400.0 mg/kg/injection, schedule: Q01DX001 (ip), vehicle: saline

Measured: T/C

CCC1CCCC(C(=O)O)N1 (centres undefined)
inactive: dose: 100.0 mg/kg/injection, schedule: Q01DX009 (ip), vehicle: saline 101 % of control | [1] 95 % of control | dose: 200.0 mg/kg/injection, schedule: Q01DX009 (ip), vehicle: saline 95 % of control | [2] 95 % of control | dose: 400.0 mg/kg/injection, schedule: Q01DX009 (ip), vehicle: saline 100 % of control | [3] 105 % of control

Clc1cc(Cc2ccc(N=C/C=C/c3ccccc3)c(Cl)c2)ccc1N=C/C=C\c1ccccc1
inactive: [4] 100 % of control | [5] 93 % of control | [6] 86 % of control

Cc1cccc(NC(=O)Nc2ccc(F)cc2)n1
inactive: [7] 94 % of control | [8] 98 % of control | [4] 98 % of control and 103 % of control | [9] 97 % of control | [10] 96 % of control | [11] 95 % of control | [5] 100 % of control and 102 % of control | [12] 100 % of control | [13] 86 % of control | [14] 95 % of control | [6] 105 % of control and 107 % of control | [15] 107 % of control

CC(=O)N(C(C)=O)N(C(C)=O)C(=O)c1ccccn1
inactive: dose: 100.0 mg/kg/injection, schedule: Q01DX001 (ip), vehicle: water 106 % of control | dose: 200.0 mg/kg/injection, schedule: Q01DX001 (ip), vehicle: water 101 % of control | dose: 400.0 mg/kg/injection, schedule: Q01DX001 (ip), vehicle: water 106 % of control

CC1CCC(C)OCO1 (centres undefined)
inactive: dose: 50.0 mg/kg/injection, schedule: Q01DX009 (ip), vehicle: acetone 97 % of control | dose: 100.0 mg/kg/injection, schedule: Q01DX009 (ip), vehicle: acetone 98 % of control | dose: 200.0 mg/kg/injection, schedule: Q01DX009 (ip), vehicle: acetone 88 % of control

COc1ccc(C2(CO)OC(CO)C(O)C2O)cc1 (centres undefined)
inactive: [16] 105 % of control | [17] 103 % of control | [18] 97 % of control | [19] 94 % of control

Cc1cc(/C=N/NC(=O)CCCC(=O)N/N=C/c2cc(C)n(-c3ccccc3)c2C)c(C)n1-c1ccccc1
inactive: [16] 98 % of control | [17] 93 % of control | [18] 95 % of control | [19] 89 % of control

O=C(NCCCCC(NC(=O)c1ccccc1)C(=O)NCCCCCCNCCCCCCNC(=O)C(CCCCNC(=O)c1ccccc1)NC(=O)c1ccccc1)c1ccccc1 (centres undefined)
inactive: dose: 10.0 mg/kg/injection, schedule: Q01DX Z (ip), vehicle: saline 96 % of control | dose: 30.0 mg/kg/injection, schedule: Q01DX Z (ip), vehicle: saline 102 % of control | dose: 100.0 mg/kg/injection, schedule: Q01DX Z (ip), vehicle: saline 100 % of control | dose: 300.0 mg/kg/injection, schedule: Q01DX Z (ip), vehicle: saline 100 % of control

CC1(CCC(=O)O)CCCCC1=O (centres undefined)
inactive: [1] 96 % of control | [2] 96 % of control | [3] 112 % of control

CNC(=O)O/N=C(/C)c1ccc(Cl)cc1
inactive: dose: 100.0 mg/kg/injection, schedule: Q01DX001 (ip), vehicle: carboxymethylcellulose (CMC) 93 % of control | dose: 200.0 mg/kg/injection, schedule: Q01DX001 (ip), vehicle: carboxymethylcellulose (CMC) 101 % of control | dose: 400.0 mg/kg/injection, schedule: Q01DX001 (ip), vehicle: carboxymethylcellulose (CMC) 101 % of control

CCN(C(=O)/C=C/c1ccccc1)C1CCCCC1
inactive: [8] 94 % of control | [9] 102 % of control | [11] 102 % of control | [12] 96 % of control | [14] 86 % of control | [15] 105 % of control

COc1ccc(C(=S)N(C)c2ccccc2)cc1
inactive: dose: 100.0 mg/kg/injection, schedule: Q04DX003 (ip), vehicle: gum acacia 96 % of control | dose: 200.0 mg/kg/injection, schedule: Q04DX003 (ip), vehicle: gum acacia 93 % of control | dose: 400.0 mg/kg/injection, schedule: Q04DX003 (ip), vehicle: gum acacia 95 % of control

CC[CH2][Sn]([Br])([CH2]CC(=O)OC)[CH2]CC(=O)OC
inactive: dose: 100.0 mg/kg/injection, schedule: Q04DX002 (ip), vehicle: saline with Tween-80 93 % of control | dose: 200.0 mg/kg/injection, schedule: Q04DX002 (ip), vehicle: saline with Tween-80 96 % of control

CCOC(=O)NC(C(N)=O)C(N)=O
inactive: [9] 103 % of control | [12] 108 % of control | [15] 106 % of control

COc1ccccc1C1CCCC1OS(C)(=O)=O (centres undefined)
inactive: dose: 75.0 mg/kg/injection, schedule: Q04DX003 (ip), vehicle: saline 103 % of control | [17] 98 % of control | dose: 150.0 mg/kg/injection, schedule: Q04DX003 (ip), vehicle: saline 100 % of control | [18] 107 % of control | dose: 300.0 mg/kg/injection, schedule: Q04DX003 (ip), vehicle: saline 108 % of control | [19] 96 % of control

COc1ccc(SC(=O)N(C)C)cc1
inactive: dose: 100.0 mg/kg/injection, schedule: Q01DX001 (ip), vehicle: saline with Tween-80 98 % of control | dose: 200.0 mg/kg/injection, schedule: Q01DX001 (ip), vehicle: saline with Tween-80 94 % of control | dose: 400.0 mg/kg/injection, schedule: Q01DX001 (ip), vehicle: saline with Tween-80 98 % of control

O=c1[nH]c(CCCOc2ccccc2)nc2ccccc12
inactive: dose: 50.0 mg/kg/injection, schedule: Q01DX001 (ip), vehicle: Klucel (hydroxypropylcellulose) (HPC) 93 % of control | [7] 104 % of control | [10] 104 % of control

CCOC(C[N+](C)(C)CCC[N+](C)(C)CC(OCC)OCC)OCC
inactive: [17] 111 % of control | [18] 96 % of control | [19] 111 % of control

C=C(C)CC#N
inactive: [1] 104 % of control | [2] 109 % of control

Cc1cc(C)c(N(CC(=O)O)S(=O)(=O)c2ccccc2)c(Sc2ccccc2)c1
inactive: [7] 113 % of control | [10] 98 % of control | [13] 100 % of control
